Reference: patent US20030217372A1, “Methods of using alpha 1b-adrenergic receptors” (priority 2002, published 2003)

Columns and labels:
Type in all cases: in vivo
WT and α1bAR-KO mice [1] = experiment: Locomotor activity after systemic D-amphetamine during microdialysis experiments; settings: 120 minutes after injection
Method: (§1) Mice were introduced in a circular corridor (4.5 cm width, 17 cm external diameter) crossed by four infrared beams (1.5 cm above the base) placed at every 90° (Imetronic, Pessac, France). The locomotor activity was counted when animals interrupted two successive beams and, thus, had traveled ¼ of the circular corridor. In each session, the spontaneous activity was recorded for 90 minutes, before mice received either saline or drugs. Their activity was recorded for an additional 60 minutes or 120 minutes period. The first session was a session of habituation to the experimental procedure during which animals received saline (˜3 ml/kg, i.p.). The locomotor response to a drug administration was measured on the following day. Tests were performed between 12:00 and 6:00 p.m. in stable conditions of temperature and humidity.
Results presented are means±S.E.M of data obtained with 5 to 9 animals. Statistical analysis was performed using Graph Pad Prism 3.0 software, (San Diego, Calif.). Data from microdialysis experiments were expressed as a percentage of the respective mean basal value to compensate for inter-subject differences. […] LogEC50's were compared after fitting curves with a Student's t-test. Pharmacological treatments correspond to independent groups of animals. Significant differences were set at p<0.05.

WT and α1b-AR KO mice [2] = experiment: Locomotor sensitization induced by repeated drug administration
Method: Animals spent 90 minutes in the experimental apparatus, received a saline injection and were replaced in the apparatus for 60 minutes. […] Four similar sessions took place every other day. The sixth session took place after a 10-day withdrawal. Locomotor responses measured during the first hour following each injection are presented in function of the number of injections and slope values. N=6 to 15 animals per group.
N=6 to 12 animals per group. […] FIG. 6B represents the time course of the locomotor responses measured every 5 minutes.
as §1
Data were analyzed with Student's t-test or analysis of variance. For behavioral sensitization experiments, correlation between the number of drug injections and the amplitude of the locomotor responses was analyzed with linear regression and the influence of genotype on this correlation with an analysis of covariance. Genotype and prazosin treatments were between-subjects factors. […] Differences were considered significant when p<0.05.
The rate of sensitization was evaluated by determining the slope of the “number of injections/response” curve (FIG. 5).

WT and α1b-AR KO mice [3] = experiment: Locomotor activity in circular corridor after acute drug injection; settings: for locomotor activity: i.p., different doses
Method: FIG. 2 is a series of dose response graphs that depicts the results of locomotor response to novelty, saline, scopolamine and chloro-APB experiments in WT and α1b-AR KO mice. […] Animals were placed in the experimental apparatus for 90 minutes, received a saline injection and were replaced in the apparatus for 60 minutes. On the following day, animals were placed in the experimental apparatus for 90 minutes, they received an intraperitoneal injection of either saline or scopolamine (1 mg/kg) and their locomotor response was measured every 5 minutes for 60 minutes. FIG. 2D represents the results of locomotor response to chloro-APB; animals were placed in the experimental apparatus for 90 minutes, received a saline injection and were replaced in the apparatus for 60 minutes. On the following days, animals were placed in the experimental apparatus for 90 minutes, they received an intraperitoneal injection of chioro-APB and their locomotor response was measured every 5 minutes for 60 minutes. Several doses of chloro-APB were tested on consecutive days in a random order.
Independent groups of animals were used for each treatment to avoid eventual behavioral sensitization (N=6-16 per group).
as §1

Sprague-Dawley rats = experiment: Local perfusion (reverse dialysis) of D-amphetamine in the nucleus accumbens, rats; settings: read-out: EC50 of DA release (extracellular DA levels)
Method: Extracellular DA levels are expressed in percent of basal DA values (3.50±0.021 and 4.71±0.015 pg DA per 20 minutes for mice and rats, respectively).
Rats were anesthetised with sodium pentobarbital (60 mg/kg; Sanofi Santé Animale, France). A unilateral permanent cannula (CMA/11 guide cannula, Microdialysis AB, Sweden) was implanted into the nucleus accumbens. The coordinates for the guide cannula tip were antero-posterior (AP): +1.7 relative to bregma, medio-lateral (ML): +1.1, and dorso-ventral (DV): −5.7 mm from dura (Paxinos and Watson, Ann. Rev. Pharmacol. Toxicol. 32:63(−77, 1986). After surgery, animals were placed in individual plastic cages and allowed to recover for at least 4 days.
The day of the experiment, the microdialysis probe was inserted (CMA/7, Membrane length 2 mm and diameter 0.24 mm, cut-off: 6000 Da, Microdialysis AB, Sweden, for mice or CMA/11 with identical probe characteristics for rats). […]
(§2) Results presented are means±S.E.M of data obtained with 5 to 9 animals. […] Data from microdialysis experiments were expressed as a percentage of the respective mean basal value to compensate for inter-subject differences. […]

C57BL6/J mice = experiment: Local perfusion (reverse dialysis) of D-amphetamine in the nucleus accumbens, mice
Method: Dialysate samples were completed to 30 μl with the mobile phase and placed into a refrigerated automatic injector (Triathlon, Spark Holland, Emmen, The Netherlands). Twenty five μl of the sample were injected every 15 minutes through a rheodyne valve in the mobile phase circuit. High-performance liquid chromatography was performed with a reverse-phase column (80×4.6 mm, 3 μM particle size, HR-80, ESA INC., Chelmsford, Mass.). Mobile phase (NaH2PO4 75 mM, EDTA 20 μM, octane sulfonic acid 2.75 mM, triethylamine 0.7 mM, acetonitrile 6%, methanol 6%, and pH 5.2) was delivered at 0.7 ml/min by an ESA-580 pump. […]

WT and α1bAR-KO mice [4] = experiment: Microdialysis: extracellular DA levels in the nucleus accumbens after systemic D-amphetamine
Method: Mice were anaesthetised with sodium pentobarbital (60 mg/kg; Sanofi Santé Animale, France) and placed in a stereotaxic frame (Kopf instruments). The head was positioned by means of a mouse nose clamp adaptator (Kopf model 922) supplemented by rat ear bars placed lightly in the external auditory meatus. A unilateral permanent cannula (CMA/7 guide cannula, Microdialysis AB, Sweden) was implanted into the nucleus accumbens and was secured on the skull with screw and dental cement. The coordinates for the guide cannula tip were antero-posterior (AP): +1.3 relative to bregma, medio-lateral (ML): +0.8, and dorso-ventral (DV): −2,4 mm from dura (Paxinos and Franklin, The mouse brain in stereotaxic coordinates, Academic Press 2001).
The day of the experiment, the microdialysis probe was inserted (CMA/7, Membrane length 2 mm and diameter 0.24 mm, cut-off: 6000 Da, Microdialysis AB, Sweden, for mice or CMA/11 with identical probe characteristics for rats). Artificial CSF (in mM: NaCl: 147; KCl: 3.5; CaCl2: 1; MgCl2: 1.2; NaH2PO4: 1; NaHCO3: 25, pH=7.6) was perfused with a CMA100 microinjection pump through the probe at a rate of 1 μl/min (2 μl/min for rats) via FEP catheter (internal diameter 0.12 mm for mice) or polyethylene catheter (internal diameter 0.3 mm for rats) connected to a fluid swivel. Adequate steady state of DA levels in perfusate samples was reached 2 hours and 20 minutes after probe insertion for mice and rats, and samples were collected in 300 μl vials placed into a refrigerated computer-controlled fraction collector (CMA/170). Samples (20 μl every 20-minutes for mice and 10 μl every 5 minutes for rats) were collected during 100 minutes and 30 minutes for mice and rats, respectively, to determine basal extracellular DA values.
Dialysate samples were completed to 30 μl with the mobile phase and placed into a refrigerated automatic injector (Triathlon, Spark Holland, Emmen, The Netherlands). Twenty five μl of the sample were injected every 15 minutes through a rheodyne valve in the mobile phase circuit. High-performance liquid chromatography was performed with a reverse-phase column (80×4.6 mm, […] particle size, HR-80, ESA INC., Chelmsford, Mass.). Mobile phase (NaH2PO4 75 mM, EDTA 20 μM, octane sulfonic acid 2.75 mM, triethylamine 0.7 mM, acetonitrile 6%, methanol 6%, and pH 5.2) was delivered at 0.7 ml/min by an ESA-580 pump. Electrochemical detection was performed with an ESA coulometric detector (Coulochem II 5100A, with a 5014B analytical cell; Eurosep, Cergy, France). […]
as §2

[5] = α1bAR-KO mice, D-amphetamine 3 mg/kg

C[C@H](N)Cc1ccccc1.C[C@H](N)Cc1ccccc1.O=S(=O)(O)O [D-amphetamine, D-amphetamine sulfate]
locomotor hyperactivity (WT and α1bAR-KO mice [1]; WT mice, D-amphetamine 3 mg/kg): 1352±389
locomotor hyperactivity (WT and α1bAR-KO mice [1]; WT mice, D-amphetamine 6 mg/kg): 2758±199
locomotor hyperactivity (WT and α1bAR-KO mice [1]; [5]): 219±62
locomotor hyperactivity (WT and α1bAR-KO mice [1]; α1bAR-KO mice, D-amphetamine 6 mg/kg): 734±184
rate of sensitization: slope of the number of injections/response curve (WT and α1b-AR KO mice [2]; WT mice, D-amphetamine 1 mg/kg): 179.8±69.1
rate of sensitization: slope of the number of injections/response curve (WT and α1b-AR KO mice [2]; WT mice, D-amphetamine 2 mg/kg): 265+71
rate of sensitization: slope of the number of injections/response curve (WT and α1b-AR KO mice [2]; α1b-AR KO mice, D-amphetamine 1 mg/kg): 33.4±17.7
rate of sensitization: slope of the number of injections/response curve (WT and α1b-AR KO mice [2]; α1b-AR KO mice, D-amphetamine 2 mg/kg): 104.4±31
amplitude of locomotor response, α1b-AR KO vs WT mice (WT and α1b-AR KO mice [3]; D-amphetamine 2 and 3 mg/kg, cocaine and morphine independent of dose): significantly lower
locomotor activity (WT and α1b-AR KO mice [3]; WT mice): dose-dependent stimulation of locomotor activity
locomotor activity (WT and α1b-AR KO mice [3]; α1b-AR KO mice): also increased locomotor activity
EC50 (Sprague-Dawley rats): 11.8 ± 1.3 µM
DA release in WT mice lower than previously found in rats (C57BL6/J mice; 3 μM D-amphetamine, local perfusion in nucleus accumbens, WT mice vs rats (Darracq et al.)): more than 5 fold
EC50 (C57BL6/J mice; C57BL6/J mice, local perfusion in nucleus accumbens, read-out: EC50 of DA release (extracellular DA levels)): 15.6 ± 1.1 µM
locomotor hyperactivity on local perfusion (C57BL6/J mice; mice nucleus accumbens, up to 100 μM): did not induce any locomotor hyperactivity
extracellular DA levels in the nucleus accumbens (WT and α1bAR-KO mice [4]; WT mice, D-amphetamine 3 mg/kg i.p.): enhanced extracellular DA levels
extracellular DA levels in the nucleus accumbens (WT and α1bAR-KO mice [4]; WT mice, D-amphetamine 6 mg/kg i.p.): enhanced extracellular DA levels
extracellular DA levels in the nucleus accumbens (WT and α1bAR-KO mice [4]; [5]): did not modify basal extracellular DA levels
mean increase in extracellular DA levels in the nucleus accumbens (WT and α1bAR-KO mice [4]; α1bAR-KO mice, D-amphetamine 6 mg/kg, vs basal): +25%
